These results are taken from PubChem BioAssay (NCI).

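Cells were grown in 96-well plates and exposed to each compound for 48 hours at five concentrations; endpoints were interpolated linearly between bracketing concentrations, or set to the highest concentration if not reached. TGI is the concentration that stops growth completely.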

Test systems include ACHN renal; CCRF-CEM leukemia; COLO 205 colon; EKVX NSCLC; HOP-62 NSCLC; HS 578T breast; IGROV1 ovarian; KM12 colon; MCF7 breast; NCI-H522 lung; OVCAR-4 ovarian; OVCAR-5 ovarian; SF-539 CNS; SNB-75 CNS; T-47D breast.
Experiment in all cases: growth of human tumour cells (NCI), 48 h

For the compound `COc1ccc(N2C(=O)C3c4[nH]c5ccc(OCc6ccccc6)cc5c4C4CCC(C(C)C)CC4C3C2=O)cc1` (stereo not given), the TGI is more than 30.4 µM with ACHN renal; 31.3 µM in the test with CCRF-CEM leukemia; more than 100 µM with COLO 205 colon; more than 100 µM with EKVX NSCLC; 36.4 µM in the test on HOP-62 NSCLC; more than 49.8 µM with HS 578T breast. Further, the TGI with IGROV1 ovarian was more than 80.6 µM; in the test on KM12 colon it was more than 100 µM; in the test with MCF7 breast, more than 100 µM; with NCI-H522 lung, 73.4 µM; in the test on OVCAR-4 ovarian, more than 100 µM; with OVCAR-5 ovarian it was more than 100 µM. Also, the TGI was 23.5 µM in the test with SF-539 CNS, 10.4 µM in the test with SNB-75 CNS and more than 100 µM with T-47D breast.
Turning to `O=C1/C(=C/c2ccc(Cl)cc2)Sc2scc(-c3cccc([N+](=O)[O-])c3)[n+]21`, the TGI in the test with ACHN renal was 6.27 µM; with CCRF-CEM leukemia, 1.18 µM; in the test on COLO 205 colon, 4.48 µM; with EKVX NSCLC, 13.9 µM; in the test on HOP-62 NSCLC, more than 69.7 µM; in the test with HS 578T breast it was 43.6 µM. Also, the TGI is 7.48 µM in the test on IGROV1 ovarian; 13.1 µM in the test on KM12 colon; more than 40.7 µM with MCF7 breast; 2.01 µM with NCI-H522 lung; 28.1 µM with OVCAR-4 ovarian; 51.3 µM in the test on OVCAR-5 ovarian. Also, the TGI is 8.11 µM with SF-539 CNS, 5.49 µM in the test with SNB-75 CNS and more than 100 µM in the test with T-47D breast.
Consider `CSc1nc(-c2ccc(Cl)cc2)c(C#N)c(=O)[nH]1`, for which the TGI in the test with ACHN renal, in the test with CCRF-CEM leukemia, with COLO 205 colon, with EKVX NSCLC, in the test with HOP-62 NSCLC and in the test on HS 578T breast was more than 100 µM in each case. Besides, the TGI with IGROV1 ovarian, in the test on KM12 colon, with MCF7 breast, with NCI-H522 lung, in the test on OVCAR-4 ovarian and in the test on OVCAR-5 ovarian was more than 100 µM throughout. Besides, the TGI in the test with SF-539 CNS, with SNB-75 CNS and with T-47D breast was more than 100 µM throughout.
Consider `COC(=O)CCC(C)[C@H]1CCC2C3C(C[C@H](OC(C)=O)[C@@]21C)[C@@]1(C)CCC2(C[C@H]1C[C@H]3OC(C)=O)OOC1(CCCCC1)OO2` (stereo not given in full), for which the TGI in the test with ACHN renal was 77.3 µM; in the test on CCRF-CEM leukemia, more than 100 µM; with COLO 205 colon, more than 100 µM; with EKVX NSCLC it was 18.8 µM; with HOP-62 NSCLC, 8.31 µM; in the test on HS 578T breast, 63.5 µM. The TGI was 20.8 µM in the test on IGROV1 ovarian; more than 100 µM in the test on KM12 colon; more than 100 µM with MCF7 breast; 60.5 µM with NCI-H522 lung; 50.9 µM in the test with OVCAR-4 ovarian; more than 100 µM in the test on OVCAR-5 ovarian. The TGI is more than 100 µM in the test with SF-539 CNS, 79.3 µM in the test on SNB-75 CNS and more than 100 µM in the test on T-47D breast.
Take `COc1cccc(C(=O)N[C@@H]2[C@H](O)[C@@H](CO)O[C@H]2n2cnc3c(N)ncnc32)c1`: the TGI in the test with ACHN renal, in the test with CCRF-CEM leukemia, in the test on COLO 205 colon, in the test with EKVX NSCLC, in the test on HOP-62 NSCLC and in the test with HS 578T breast was more than 100 µM in each case. For the same compound, the TGI in the test on IGROV1 ovarian, in the test with KM12 colon, with MCF7 breast, with NCI-H522 lung, in the test on OVCAR-4 ovarian and with OVCAR-5 ovarian was more than 100 µM each time. Further, the TGI with SF-539 CNS, in the test with SNB-75 CNS and with T-47D breast was more than 100 µM throughout.
As for `CC(C)(CN)SCc1ccccc1`, the TGI in the test on ACHN renal, in the test on CCRF-CEM leukemia, in the test on COLO 205 colon, in the test on EKVX NSCLC, in the test on HOP-62 NSCLC and in the test with HS 578T breast was more than 100 µM each time. The TGI with IGROV1 ovarian, in the test with KM12 colon, with MCF7 breast, with NCI-H522 lung, in the test on OVCAR-4 ovarian and in the test with OVCAR-5 ovarian was more than 100 µM each time. In addition, the TGI with SF-539 CNS, with SNB-75 CNS and with T-47D breast was more than 100 µM in each case.
As to `O=c1c(Sc2ncccn2)c(Sc2ncccn2)cnn1CCl`, the TGI in the test with ACHN renal was 5.45 µM; in the test on CCRF-CEM leukemia it was 7.68 µM; with COLO 205 colon, 4.79 µM; in the test with EKVX NSCLC it was 8.65 µM; in the test with HOP-62 NSCLC, 8.05 µM; with HS 578T breast, 37 µM. Further, the TGI with IGROV1 ovarian is 4.76 µM; in the test with KM12 colon, 29.1 µM; in the test on MCF7 breast it was 11.6 µM; in the test on NCI-H522 lung it was 2.37 µM; in the test on OVCAR-4 ovarian, 6.14 µM; in the test with OVCAR-5 ovarian it was 21.1 µM. Also, the TGI worked out at 4 µM with SF-539 CNS, 34.6 µM in the test on SNB-75 CNS and 14.2 µM in the test on T-47D breast.
As for `CCc1n[nH]c(=S)n1/N=C\c1ccc(-c2ccccc2[N+](=O)[O-])o1`, the TGI with ACHN renal, with CCRF-CEM leukemia, in the test with COLO 205 colon, in the test with EKVX NSCLC, in the test with HOP-62 NSCLC and in the test on HS 578T breast was more than 100 µM throughout. In addition, the TGI in the test with IGROV1 ovarian, in the test with KM12 colon, with MCF7 breast, in the test on NCI-H522 lung, in the test on OVCAR-4 ovarian and with OVCAR-5 ovarian was more than 100 µM in each case. In addition, the TGI with SF-539 CNS, with SNB-75 CNS and with T-47D breast was more than 100 µM each time.
As for `C[N+]12CCCCC1C(CN1C(=O)c3ccccc3C1=O)CCC2` (stereo not given), the TGI with ACHN renal, with CCRF-CEM leukemia, in the test on COLO 205 colon, in the test on EKVX NSCLC, in the test with HOP-62 NSCLC and with HS 578T breast was more than 100 µM throughout. Further, the TGI with IGROV1 ovarian, in the test on KM12 colon, in the test with MCF7 breast, in the test on NCI-H522 lung, with OVCAR-4 ovarian and in the test with OVCAR-5 ovarian was more than 100 µM throughout. The TGI with SF-539 CNS, in the test on SNB-75 CNS and with T-47D breast was more than 100 µM in each case.
For `Cc1nc(Nc2nc3ccccc3[nH]2)[nH]c(=O)c1CCO`, the TGI with ACHN renal, in the test on CCRF-CEM leukemia, with COLO 205 colon, in the test with EKVX NSCLC, with HOP-62 NSCLC and in the test with HS 578T breast was more than 100 µM each time. For the same compound, the TGI in the test with IGROV1 ovarian is more than 57 µM; in the test with KM12 colon, more than 100 µM; with MCF7 breast it was more than 100 µM; in the test on NCI-H522 lung, more than 100 µM; in the test on OVCAR-4 ovarian it was more than 100 µM; with OVCAR-5 ovarian, more than 100 µM. Further, the TGI was more than 65.3 µM in the test on SF-539 CNS, more than 100 µM in the test with SNB-75 CNS and more than 100 µM in the test with T-47D breast.
As to `CC(=O)NC1C(OCc2ccccc2)OC(CO)C(O)C1OCC(=O)N1CCCC1C(=O)NC(CCC(=O)NCCCCCNc1c2ccccc2nc2cccc([N+](=O)[O-])c12)C(N)=O` (stereo not given), the TGI in the test with ACHN renal turned out to be 0.0813 µM; in the test with CCRF-CEM leukemia, 1.08 µM; in the test with COLO 205 colon it was 0.039 µM; in the test with EKVX NSCLC, 0.633 µM; with HOP-62 NSCLC it was 0.125 µM; in the test on HS 578T breast, 0.19 µM. The TGI was found to be 0.86 µM in the test on IGROV1 ovarian; 0.13 µM in the test with KM12 colon; 0.502 µM with MCF7 breast; 0.25 µM in the test on NCI-H522 lung; 3.98 µM in the test with OVCAR-4 ovarian; 0.06 µM in the test with OVCAR-5 ovarian. For the same compound, the TGI in the test on SF-539 CNS amounted to 0.097 µM; in the test on SNB-75 CNS it was 0.479 µM; in the test with T-47D breast, 8.41 µM.
As for `O=C1Nc2ccc(Br)cc2/C1=C/C(=O)c1ccccc1`, the TGI in the test with ACHN renal is 3.32 µM; in the test on CCRF-CEM leukemia, 8.36 µM; in the test with COLO 205 colon, 3.97 µM; in the test with EKVX NSCLC, 28.6 µM; in the test on HOP-62 NSCLC it was 61.2 µM; in the test with HS 578T breast, more than 55.4 µM. Further, the TGI in the test on IGROV1 ovarian was determined as 13.3 µM; with KM12 colon, 23 µM; with MCF7 breast, 15.3 µM; in the test with NCI-H522 lung it was 5.17 µM; in the test on OVCAR-4 ovarian, 30.5 µM; in the test with OVCAR-5 ovarian, 53.6 µM. Also, the TGI with SF-539 CNS is 13 µM; in the test with SNB-75 CNS, 32 µM; in the test with T-47D breast, 32.1 µM.
`Cc1cc(C(O)CNC(C)CCn2cnc3c2c(=O)n(C)c(=O)n3C)ccc1O` (stereo not given): the TGI in the test on ACHN renal, with CCRF-CEM leukemia, in the test with COLO 205 colon, in the test on EKVX NSCLC, in the test on HOP-62 NSCLC and in the test with HS 578T breast was more than 100 µM in each case. The TGI in the test on IGROV1 ovarian, in the test on KM12 colon, with MCF7 breast, with NCI-H522 lung, with OVCAR-4 ovarian and in the test on OVCAR-5 ovarian was more than 100 µM throughout. Besides, the TGI with SF-539 CNS, in the test with SNB-75 CNS and in the test on T-47D breast was more than 100 µM in each case.
As to `CN1CCCC(C(=O)OCC(=O)C2(O)CCC3C4CCC5=CC(=O)CCC5(C)C4C(O)CC32C)C1` (stereo not given), the TGI with ACHN renal is 34.8 µM; with CCRF-CEM leukemia, 35.6 µM; in the test with COLO 205 colon it was 32.9 µM; with EKVX NSCLC, 67.1 µM; in the test with HOP-62 NSCLC it was 31 µM; with HS 578T breast, more than 82.9 µM. Moreover, the TGI in the test on IGROV1 ovarian is more than 60.1 µM; in the test on KM12 colon it was more than 69.7 µM; in the test on MCF7 breast, more than 65.6 µM; with NCI-H522 lung it was 45.3 µM; in the test with OVCAR-4 ovarian, 32.5 µM; with OVCAR-5 ovarian it was 52.2 µM. Further, the TGI came out at 4.38 µM with SF-539 CNS, 17.5 µM in the test on SNB-75 CNS and 34.5 µM with T-47D breast.
